Tests used:
Details in all cases: compound 10.0 µM
[1] = target: PDGFRA (human) (UniProt P16234)
[2] = target: ERN1 (human) (UniProt O75460)
[3] = target: TXK (human) (UniProt P42681)
[4] = target: RPS6KA4 KD1 (human) (UniProt O75676)
[5] = target: MYLK (human) (UniProt Q15746)
[6] = target: MELK (human) (UniProt Q14680)
[7] = target: NUAK1 (human) (UniProt O60285)
[8] = target: PIP4K2C (human) (UniProt Q8TBX8)
[9] = target: CAMKK2 (human) (UniProt Q96RR4)
[10] = target: RET (human) (UniProt P07949)
[11] = target: MET (human) (UniProt P08581)
[12] = target: HCK (human) (UniProt P08631)
[13] = target: IKBKB (human) (UniProt O14920)
[14] = target: CSK (human) (UniProt P41240)
[15] = target: RPS6KA4 KD2 (human) (UniProt O75676)
[16] = target: CSNK1A1 (human) (UniProt P48729)
[17] = target: AXL (human) (UniProt P30530)
[18] = tested on: RET (human), P07949 [M918T]
[19] = target: FES (human) (UniProt P07332)
[20] = target: DCLK3 (human) (UniProt Q9C098)
[21] = target: CHEK1 (human) (UniProt O14757)
[22] = target: MAP3K6 (human) (UniProt O95382)
[23] = target: RPS6KA1 KD2 (human) (UniProt Q15418)
[24] = target: STK35 (human) (UniProt Q8TDR2)
[25] = target: ADCK3 (human) (UniProt Q8NI60)
[26] = target: EPHA8 (human) (UniProt P29322)
[27] = target: BMP2K (human) (UniProt Q9NSY1)
[28] = target: AKT1 (human) (UniProt P31749)
[29] = target: CDK18 (human) (UniProt Q07002)
[30] = target: PIP4K2B (human) (UniProt P78356)
[31] = target: ERBB4 (human) (UniProt Q15303)
[32] = target: BLK (human) (UniProt P51451)
[33] = target: PKMYT1 (human) (UniProt Q99640)
[34] = target: LIMK1 (human) (UniProt P53667)
[35] = target: TYRO3 (human) (UniProt Q06418)
[36] = target: NEK11 (human) (UniProt Q8NG66)
[37] = target: MAP2K5 (human) (UniProt Q13163)
[38] = target: IKBKE (human) (UniProt Q14164)
[39] = target: PRKCE (human) (UniProt Q02156)
[40] = target: FLT4 (human) (UniProt P35916)
[41] = target: MAP4K5 (human) (UniProt Q9Y4K4)
[42] = target: STK24 (human) (UniProt Q9Y6E0)

Sequence of AKT1 (human) (P31749 whole entry, looked up): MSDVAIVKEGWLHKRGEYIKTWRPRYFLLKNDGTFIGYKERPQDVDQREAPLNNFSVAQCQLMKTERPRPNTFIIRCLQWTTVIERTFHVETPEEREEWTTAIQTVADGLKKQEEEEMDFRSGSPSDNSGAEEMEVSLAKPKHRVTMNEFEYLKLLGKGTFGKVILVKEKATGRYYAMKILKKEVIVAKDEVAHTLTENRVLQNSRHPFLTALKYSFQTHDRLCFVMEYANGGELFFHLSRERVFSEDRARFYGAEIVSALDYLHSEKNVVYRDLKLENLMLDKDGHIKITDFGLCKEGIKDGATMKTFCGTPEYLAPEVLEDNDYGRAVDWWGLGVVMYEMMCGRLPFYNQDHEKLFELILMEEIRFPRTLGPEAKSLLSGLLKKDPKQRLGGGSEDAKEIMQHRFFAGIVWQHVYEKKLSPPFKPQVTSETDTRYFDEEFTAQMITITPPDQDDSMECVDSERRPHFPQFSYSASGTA
Sequence of BLK (human) (P51451 whole entry, looked up): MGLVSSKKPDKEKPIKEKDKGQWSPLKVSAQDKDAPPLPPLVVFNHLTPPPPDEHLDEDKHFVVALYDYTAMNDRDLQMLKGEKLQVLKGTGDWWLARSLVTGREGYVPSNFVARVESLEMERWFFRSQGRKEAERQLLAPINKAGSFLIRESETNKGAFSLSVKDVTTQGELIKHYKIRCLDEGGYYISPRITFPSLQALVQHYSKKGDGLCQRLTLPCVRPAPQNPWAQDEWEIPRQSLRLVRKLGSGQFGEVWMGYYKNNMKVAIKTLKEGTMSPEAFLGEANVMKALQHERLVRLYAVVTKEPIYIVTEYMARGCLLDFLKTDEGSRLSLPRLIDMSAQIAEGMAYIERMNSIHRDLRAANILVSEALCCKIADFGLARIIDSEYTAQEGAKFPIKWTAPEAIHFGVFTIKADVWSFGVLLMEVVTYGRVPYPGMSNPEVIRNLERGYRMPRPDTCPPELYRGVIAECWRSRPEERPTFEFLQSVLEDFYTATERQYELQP
Sequence of EPHA8 (human) (P29322 whole entry, looked up): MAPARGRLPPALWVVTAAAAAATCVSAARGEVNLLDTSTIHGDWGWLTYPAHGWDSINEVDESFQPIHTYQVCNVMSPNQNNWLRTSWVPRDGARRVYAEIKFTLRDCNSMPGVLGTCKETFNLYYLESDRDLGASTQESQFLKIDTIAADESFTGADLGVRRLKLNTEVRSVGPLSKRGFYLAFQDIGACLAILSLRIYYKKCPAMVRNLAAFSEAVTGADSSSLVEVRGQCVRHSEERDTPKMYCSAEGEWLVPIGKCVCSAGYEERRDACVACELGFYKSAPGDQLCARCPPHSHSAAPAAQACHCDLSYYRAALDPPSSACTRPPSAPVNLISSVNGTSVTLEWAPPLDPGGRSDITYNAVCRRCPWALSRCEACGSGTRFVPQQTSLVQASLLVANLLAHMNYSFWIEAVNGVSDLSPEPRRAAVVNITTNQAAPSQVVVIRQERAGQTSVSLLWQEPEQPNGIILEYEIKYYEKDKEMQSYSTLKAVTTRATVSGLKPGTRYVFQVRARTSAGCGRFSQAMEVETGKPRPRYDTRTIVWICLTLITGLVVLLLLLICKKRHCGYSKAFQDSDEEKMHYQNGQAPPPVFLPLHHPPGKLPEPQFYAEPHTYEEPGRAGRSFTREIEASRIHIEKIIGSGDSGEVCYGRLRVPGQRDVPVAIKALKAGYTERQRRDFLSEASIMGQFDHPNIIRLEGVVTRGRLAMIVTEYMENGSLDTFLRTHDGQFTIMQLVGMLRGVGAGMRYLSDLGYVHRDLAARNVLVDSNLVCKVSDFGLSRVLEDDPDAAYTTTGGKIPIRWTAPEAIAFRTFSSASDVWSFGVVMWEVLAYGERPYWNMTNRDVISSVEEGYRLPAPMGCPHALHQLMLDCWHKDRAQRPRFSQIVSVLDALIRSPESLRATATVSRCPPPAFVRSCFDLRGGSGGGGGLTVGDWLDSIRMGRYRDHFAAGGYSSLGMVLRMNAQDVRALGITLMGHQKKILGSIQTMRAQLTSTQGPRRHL
Sequence of ERN1 (human) (O75460 whole entry, looked up): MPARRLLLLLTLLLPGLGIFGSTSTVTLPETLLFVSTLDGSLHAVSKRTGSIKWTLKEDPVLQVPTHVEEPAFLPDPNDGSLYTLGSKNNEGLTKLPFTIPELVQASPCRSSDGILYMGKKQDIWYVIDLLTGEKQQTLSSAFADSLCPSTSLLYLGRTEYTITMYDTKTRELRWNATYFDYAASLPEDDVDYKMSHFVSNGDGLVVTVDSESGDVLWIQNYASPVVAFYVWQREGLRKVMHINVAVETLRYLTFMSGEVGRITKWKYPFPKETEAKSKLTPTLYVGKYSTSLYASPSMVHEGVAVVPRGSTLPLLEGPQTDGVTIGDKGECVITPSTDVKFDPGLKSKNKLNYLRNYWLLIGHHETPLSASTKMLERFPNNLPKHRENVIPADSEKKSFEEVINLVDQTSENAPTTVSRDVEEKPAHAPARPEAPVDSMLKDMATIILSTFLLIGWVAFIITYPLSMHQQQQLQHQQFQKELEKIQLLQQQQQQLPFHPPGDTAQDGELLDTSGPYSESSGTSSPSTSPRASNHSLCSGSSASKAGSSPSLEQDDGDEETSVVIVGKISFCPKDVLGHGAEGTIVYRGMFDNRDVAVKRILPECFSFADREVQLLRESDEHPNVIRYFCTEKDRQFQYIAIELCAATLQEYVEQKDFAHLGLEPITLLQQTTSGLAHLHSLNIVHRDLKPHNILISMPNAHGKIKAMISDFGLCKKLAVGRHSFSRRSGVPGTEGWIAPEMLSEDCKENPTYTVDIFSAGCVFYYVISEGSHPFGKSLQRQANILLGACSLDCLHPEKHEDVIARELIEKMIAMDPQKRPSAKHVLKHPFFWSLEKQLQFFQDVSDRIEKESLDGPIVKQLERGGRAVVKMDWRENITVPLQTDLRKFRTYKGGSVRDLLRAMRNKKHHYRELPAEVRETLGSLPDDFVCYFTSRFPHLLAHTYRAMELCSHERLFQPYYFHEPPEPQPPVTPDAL
Sequence of PRKCE (human) (Q02156 whole entry, looked up): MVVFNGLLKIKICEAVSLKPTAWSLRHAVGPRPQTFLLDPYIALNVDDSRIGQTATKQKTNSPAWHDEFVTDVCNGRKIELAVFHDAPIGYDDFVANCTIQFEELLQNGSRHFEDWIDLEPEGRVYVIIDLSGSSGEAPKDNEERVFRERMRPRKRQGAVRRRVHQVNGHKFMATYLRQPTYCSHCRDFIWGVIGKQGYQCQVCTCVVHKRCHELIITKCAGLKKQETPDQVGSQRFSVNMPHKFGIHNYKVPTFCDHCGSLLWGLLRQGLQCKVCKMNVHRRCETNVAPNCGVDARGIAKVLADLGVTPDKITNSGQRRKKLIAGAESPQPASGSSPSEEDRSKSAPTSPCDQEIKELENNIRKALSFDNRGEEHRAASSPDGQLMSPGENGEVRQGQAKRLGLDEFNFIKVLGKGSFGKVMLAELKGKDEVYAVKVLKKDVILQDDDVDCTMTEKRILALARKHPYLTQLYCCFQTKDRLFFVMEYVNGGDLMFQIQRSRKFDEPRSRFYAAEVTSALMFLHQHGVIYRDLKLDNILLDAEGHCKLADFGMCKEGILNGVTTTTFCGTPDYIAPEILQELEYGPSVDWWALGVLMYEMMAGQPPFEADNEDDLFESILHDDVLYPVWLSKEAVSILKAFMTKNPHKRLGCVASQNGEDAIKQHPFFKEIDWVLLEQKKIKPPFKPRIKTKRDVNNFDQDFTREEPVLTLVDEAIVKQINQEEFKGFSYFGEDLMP
Sequence of MAP3K6 (human) (O95382 whole entry, looked up): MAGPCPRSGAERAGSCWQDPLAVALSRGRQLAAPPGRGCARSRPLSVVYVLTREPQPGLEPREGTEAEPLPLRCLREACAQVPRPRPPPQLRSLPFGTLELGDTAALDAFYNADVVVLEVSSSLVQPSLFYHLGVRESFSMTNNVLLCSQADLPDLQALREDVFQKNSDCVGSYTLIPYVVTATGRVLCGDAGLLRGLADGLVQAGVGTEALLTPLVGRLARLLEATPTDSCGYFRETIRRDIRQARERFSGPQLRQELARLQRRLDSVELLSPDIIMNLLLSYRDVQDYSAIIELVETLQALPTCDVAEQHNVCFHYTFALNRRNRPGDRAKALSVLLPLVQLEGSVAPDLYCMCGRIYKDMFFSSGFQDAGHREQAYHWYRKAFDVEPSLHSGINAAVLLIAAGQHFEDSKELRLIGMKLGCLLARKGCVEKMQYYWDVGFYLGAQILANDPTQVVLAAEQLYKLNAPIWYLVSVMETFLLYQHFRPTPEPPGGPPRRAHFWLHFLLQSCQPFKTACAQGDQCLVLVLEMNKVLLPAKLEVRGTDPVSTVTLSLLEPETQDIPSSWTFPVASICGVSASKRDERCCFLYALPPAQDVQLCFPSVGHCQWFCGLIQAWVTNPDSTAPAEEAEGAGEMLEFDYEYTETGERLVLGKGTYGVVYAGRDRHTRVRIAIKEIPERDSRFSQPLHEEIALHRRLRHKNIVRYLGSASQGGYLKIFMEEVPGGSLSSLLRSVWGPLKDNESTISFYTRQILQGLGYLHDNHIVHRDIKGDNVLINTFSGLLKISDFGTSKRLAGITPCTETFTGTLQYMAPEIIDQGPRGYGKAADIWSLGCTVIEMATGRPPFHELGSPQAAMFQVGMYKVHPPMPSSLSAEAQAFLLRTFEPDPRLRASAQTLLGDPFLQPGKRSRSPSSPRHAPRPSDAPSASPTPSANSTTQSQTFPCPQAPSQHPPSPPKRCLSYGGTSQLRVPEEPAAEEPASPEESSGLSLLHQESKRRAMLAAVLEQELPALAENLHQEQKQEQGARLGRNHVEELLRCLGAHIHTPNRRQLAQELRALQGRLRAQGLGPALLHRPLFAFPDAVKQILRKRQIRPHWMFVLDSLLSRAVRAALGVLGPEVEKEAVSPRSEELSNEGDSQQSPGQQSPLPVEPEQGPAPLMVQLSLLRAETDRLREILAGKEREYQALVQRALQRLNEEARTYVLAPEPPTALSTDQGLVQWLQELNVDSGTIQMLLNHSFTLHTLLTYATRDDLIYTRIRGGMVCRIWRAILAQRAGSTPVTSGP

CNC(=O)c1cc(Oc2ccc(NC(=O)Nc3ccc(Cl)c(C(F)(F)F)c3)cc2)ccn1
per cent of control [1]: 0% | per cent of control [2]: 92% | per cent of control [3]: 98% | per cent of control [4]: 81% | per cent of control [5]: 100% | per cent of control [6]: 83% | per cent of control [7]: 74% | per cent of control [8]: 34% | per cent of control [9]: 100% | per cent of control [10]: 0% | per cent of control [11]: 74% | per cent of control [12]: 14% | per cent of control [13]: 100% | per cent of control [14]: 52% | per cent of control [15]: 100% | per cent of control [16]: 100% | per cent of control [17]: 5.4% | per cent of control [18]: 0% | per cent of control [19]: 72% | per cent of control [20]: 100% | per cent of control [21]: 49% | per cent of control [22]: 72% | per cent of control [23]: 77% | per cent of control [24]: 7.8% | per cent of control [25]: 90% | per cent of control [26]: 0.9% | per cent of control [27]: 65% | per cent of control [28]: 100% | per cent of control [29]: 57% | per cent of control [30]: 89% | per cent of control [31]: 92% | per cent of control [32]: 28% | per cent of control [33]: 93% | per cent of control [34]: 7.6% | per cent of control [35]: 100% | per cent of control [36]: 99% | per cent of control [37]: 0.35% | per cent of control [38]: 100% | per cent of control [39]: 100% | per cent of control [40]: 0% | per cent of control [41]: 1.5% | per cent of control [42]: 81%

CNC(=O)c1cc(Oc2ccc(NC(=O)Nc3ccc(Cl)c(C(F)(F)F)c3)cc2)cc[n+]1[O-]
per cent of control [1]: 0% | per cent of control [2]: 66% | per cent of control [3]: 78% | per cent of control [4]: 13% | per cent of control [5]: 100% | per cent of control [6]: 65% | per cent of control [7]: 100% | per cent of control [8]: 16% | per cent of control [9]: 68% | per cent of control [10]: 0% | per cent of control [11]: 16% | per cent of control [12]: 8.8% | per cent of control [13]: 61% | per cent of control [14]: 1% | per cent of control [15]: 98% | per cent of control [16]: 100% | per cent of control [17]: 1.8% | per cent of control [18]: 0% | per cent of control [19]: 98% | per cent of control [20]: 100% | per cent of control [21]: 79% | per cent of control [22]: 64% | per cent of control [23]: 58% | per cent of control [24]: 40% | per cent of control [25]: 86% | per cent of control [26]: 0.3% | per cent of control [27]: 100% | per cent of control [28]: 100% | per cent of control [29]: 26% | per cent of control [30]: 88% | per cent of control [31]: 100% | per cent of control [32]: 11% | per cent of control [33]: 100% | per cent of control [34]: 8.5% | per cent of control [35]: 100% | per cent of control [36]: 100% | per cent of control [37]: 0.1% | per cent of control [38]: 100% | per cent of control [39]: 100% | per cent of control [40]: 0% | per cent of control [41]: 0.45% | per cent of control [42]: 14%

— the kinase profiling compilation of Christmann-Franck et al. (2016)
